According to PubChem BioAssay AID1259407 (Chemical Carcinogenesis Research Information System (CCRIS), 2018):
The source made the active and inactive calls. The rule behind the calls is not given here.

Tested on: CCRIS mutagenicity, Ames/micronucleus/aberration tests
Experiment: CCRIS mutagenicity studies
[1] = Test System: AMES SALMONELLA TYPHIMURIUM, Strain/Indicator: TA97, Metabolic Activation: NONE, Method: PREINCUBATION
[2] = Test System: AMES SALMONELLA TYPHIMURIUM, Strain/Indicator: TA98, Metabolic Activation: NONE, Method: PREINCUBATION
[3] = Test System: AMES SALMONELLA TYPHIMURIUM, Strain/Indicator: TA100, Metabolic Activation: NONE, Method: PREINCUBATION
[4] = Test System: AMES SALMONELLA TYPHIMURIUM, Strain/Indicator: TA1535, Metabolic Activation: NONE, Method: PREINCUBATION
[5] = Test System: AMES SALMONELLA TYPHIMURIUM, Strain/Indicator: TA98, Metabolic Activation: HAMSTER, LIVER, S-9, AROCLOR 1254 (10%), Method: PREINCUBATION
[6] = Test System: AMES SALMONELLA TYPHIMURIUM, Strain/Indicator: TA98, Metabolic Activation: RAT, LIVER, S-9, AROCLOR 1254 (10%), Method: PREINCUBATION
[7] = Test System: AMES SALMONELLA TYPHIMURIUM, Strain/Indicator: TA100, Metabolic Activation: RAT, LIVER, S-9, AROCLOR 1254 (10%), Method: PREINCUBATION
[8] = Test System: AMES SALMONELLA TYPHIMURIUM, Strain/Indicator: TA1535, Metabolic Activation: HAMSTER, LIVER, S-9, AROCLOR 1254 (10%), Method: PREINCUBATION
[9] = Test System: AMES SALMONELLA TYPHIMURIUM, Strain/Indicator: TA1535, Metabolic Activation: RAT, LIVER, S-9, AROCLOR 1254 (10%), Method: PREINCUBATION
[10] = Test System: AMES SALMONELLA TYPHIMURIUM, Strain/Indicator: TA1537, Metabolic Activation: HAMSTER, LIVER, S-9, AROCLOR 1254 (10%), Method: PREINCUBATION
[11] = Test System: AMES SALMONELLA TYPHIMURIUM, Strain/Indicator: TA98, Metabolic Activation: NONE, Method: STANDARD PLATE
[12] = Test System: AMES SALMONELLA TYPHIMURIUM, Strain/Indicator: TA100, Metabolic Activation: NONE, Method: STANDARD PLATE
[13] = Test System: AMES SALMONELLA TYPHIMURIUM, Strain/Indicator: TA102, Metabolic Activation: NONE, Method: STANDARD PLATE

Cc1noc(NS(=O)(=O)c2ccc(N)cc2)c1C
mutagenic call (End Point: IN VITRO CHROMOSOMAL ABERRATIONS, Test System: CHO CELLS, Metabolic Activation: NONE): inactive; negative | mutagenic call (End Point: IN VITRO CHROMOSOMAL ABERRATIONS, Test System: CHO CELLS, Metabolic Activation: RAT, LIVER, S-9, AROCLOR 1254): inactive; negative | mutagenic call (Test System: AMES SALMONELLA TYPHIMURIUM, Strain/Indicator: TA97, Metabolic Activation: HAMSTER, LIVER, S-9, AROCLOR 1254 (10 OR 30%), Method: PREINCUBATION): inactive; negative | mutagenic call [1]: inactive; negative | mutagenic call (Test System: AMES SALMONELLA TYPHIMURIUM, Strain/Indicator: TA97, Metabolic Activation: RAT, LIVER, S-9, AROCLOR 1254 (10 OR 30%), Method: PREINCUBATION): inactive; negative | mutagenic call (Test System: AMES SALMONELLA TYPHIMURIUM, Strain/Indicator: TA98, Metabolic Activation: HAMSTER, LIVER, S-9, AROCLOR 1254 (10 OR 30%), Method: PREINCUBATION): inactive; negative | mutagenic call [2]: inactive; negative | mutagenic call (Test System: AMES SALMONELLA TYPHIMURIUM, Strain/Indicator: TA98, Metabolic Activation: RAT, LIVER, S-9, AROCLOR 1254 (10 OR 30%), Method: PREINCUBATION): inactive; negative | mutagenic call (Test System: AMES SALMONELLA TYPHIMURIUM, Strain/Indicator: TA100, Metabolic Activation: HAMSTER, LIVER, S-9, AROCLOR 1254 (10 OR 30%), Method: PREINCUBATION): inactive; negative | mutagenic call [3]: inactive; negative | mutagenic call (Test System: AMES SALMONELLA TYPHIMURIUM, Strain/Indicator: TA100, Metabolic Activation: RAT, LIVER, S-9, AROCLOR 1254 (10 OR 30%), Method: PREINCUBATION): inactive; negative | mutagenic call (Test System: AMES SALMONELLA TYPHIMURIUM, Strain/Indicator: TA1535, Metabolic Activation: HAMSTER, LIVER, S-9, AROCLOR 1254 (10 OR 30%), Method: PREINCUBATION): inactive; negative | mutagenic call [4]: inactive; negative | mutagenic call (Test System: AMES SALMONELLA TYPHIMURIUM, Strain/Indicator: TA1535, Metabolic Activation: RAT, LIVER, S-9, AROCLOR 1254 (10 OR 30%), Method: PREINCUBATION): inactive; negative | mutagenic call (Test System: E. COLI, Strain/Indicator: WP2 UVRA, Metabolic Activation: HAMSTER, LIVER, S-9, AROCLOR 1254, Method: STANDARD PLATE): inactive; negative | mutagenic call (Test System: E. COLI, Strain/Indicator: WP2 UVRA, Metabolic Activation: HAMSTER, LIVER, S-9, Method: STANDARD PLATE): inactive; negative | mutagenic call (Test System: E. COLI, Strain/Indicator: WP2 UVRA, Metabolic Activation: MOUSE, LIVER, S-9, AROCLOR 1254, Method: STANDARD PLATE): inactive; negative | mutagenic call (Test System: E. COLI, Strain/Indicator: WP2 UVRA, Metabolic Activation: MOUSE, LIVER, S-9, Method: STANDARD PLATE): inactive; negative | mutagenic call (Test System: E. COLI, Strain/Indicator: WP2 UVRA, Metabolic Activation: NONE, Method: STANDARD PLATE): inactive; negative | mutagenic call (Test System: E. COLI, Strain/Indicator: WP2 UVRA, Metabolic Activation: RAT, LIVER, S-9, AROCLOR 1254, Method: STANDARD PLATE): inactive; negative | mutagenic call (Test System: E. COLI, Strain/Indicator: WP2 UVRA, Metabolic Activation: RAT, LIVER, S-9, Method: STANDARD PLATE): inactive; negative

O=C([O-])[O-].[Mn+2]
mutagenic call [1]: inactive; negative | mutagenic call (Test System: AMES SALMONELLA TYPHIMURIUM, Strain/Indicator: TA97, Metabolic Activation: S-9, Method: PREINCUBATION): inactive; negative | mutagenic call (Test System: AMES SALMONELLA TYPHIMURIUM, Strain/Indicator: TA102, Metabolic Activation: NONE, Method: PREINCUBATION): inactive; negative | mutagenic call (Test System: AMES SALMONELLA TYPHIMURIUM, Strain/Indicator: TA102, Metabolic Activation: S-9, Method: PREINCUBATION): inactive; negative

CC(N)CN (centres undefined)
mutagenic call [5]: inactive; negative | mutagenic call [2]: inactive; negative | mutagenic call [6]: inactive; negative | mutagenic call (Test System: AMES SALMONELLA TYPHIMURIUM, Strain/Indicator: TA100, Metabolic Activation: HAMSTER, LIVER, S-9, AROCLOR 1254 (10%), Method: PREINCUBATION): inactive; negative | mutagenic call [3]: inactive; negative | mutagenic call [7]: inactive; negative | mutagenic call [8]: inactive; negative | mutagenic call [4]: inactive; negative | mutagenic call [9]: inactive; negative | mutagenic call [10]: inactive; negative | mutagenic call (Test System: AMES SALMONELLA TYPHIMURIUM, Strain/Indicator: TA1537, Metabolic Activation: NONE, Method: PREINCUBATION): inactive; negative | mutagenic call (Test System: AMES SALMONELLA TYPHIMURIUM, Strain/Indicator: TA1537, Metabolic Activation: RAT, LIVER, S-9, AROCLOR 1254 (10%), Method: PREINCUBATION): inactive; negative

COC(=O)c1cc2c(c3c1c([N+](=O)[O-])cc1c(OC)cccc13)OCO2
mutagenic call [11]: active; positive | mutagenic call [12]: active; positive | mutagenic call [13]: inactive; negative | mutagenic call (Test System: AMES SALMONELLA TYPHIMURIUM, Strain/Indicator: TA1537, Metabolic Activation: NONE, Method: STANDARD PLATE): active; positive | mutagenic call (Test System: AMES SALMONELLA TYPHIMURIUM, Strain/Indicator: TM677/8-AZAGUANINE, Metabolic Activation: NONE, Method: SUSPENSION/PLATE): inactive; negative

COc1cc(N=Nc2c(Br)cc([N+](=O)[O-])cc2[N+](=O)[O-])c(NC(C)=O)cc1N(CCOC(C)=O)CCOC(C)=O
mutagenic call (End Point: IN VITRO CHROMOSOMAL ABERRATIONS, Test System: CHL CELLS, Metabolic Activation: NONE): active; positive (structural changes)

O/N=C/C=N/O
mutagenic call (Test System: AMES SALMONELLA TYPHIMURIUM, Strain/Indicator: TA102, Metabolic Activation: RAT, LIVER, S-9, PHENOBARBITAL AND 5,6-BENZOFLAVONE, Method: STANDARD PLATE): inactive; negative | mutagenic call (Test System: AMES SALMONELLA TYPHIMURIUM, Strain/Indicator: TA2638, Metabolic Activation: RAT, LIVER, S-9, PHENOBARBITAL AND 5,6-BENZOFLAVONE, Method: STANDARD PLATE): inactive; negative | mutagenic call (Test System: E. COLI, Strain/Indicator: WP2 (PKM101), Metabolic Activation: RAT, LIVER, S-9, PHENOBARBITAL AND 5,6-BENZOFLAVONE, Method: STANDARD PLATE): inactive; negative | mutagenic call (Test System: E. COLI, Strain/Indicator: WP2 UVRA (PKM101), Metabolic Activation: RAT, LIVER, S-9, PHENOBARBITAL AND 5,6-BENZOFLAVONE, Method: STANDARD PLATE): active; positive

CN1CCN(c2ccc3nc(CCc4ccc5nc(-c6ccc(N(CCCl)CCCl)cc6)[nH]c5c4)[nH]c3c2)CC1
mutagenic call [11]: inactive; negative | mutagenic call [12]: inactive; negative | mutagenic call [13]: active; positive

Cc1cc(C)cc(N)c1
mutagenic call (Test System: AMES SALMONELLA TYPHIMURIUM, Strain/Indicator: TA97, Metabolic Activation: HAMSTER, LIVER, S-9, AROCLOR 1254 (10%), Method: PREINCUBATION): inactive; negative | mutagenic call [1]: inactive; negative | mutagenic call (Test System: AMES SALMONELLA TYPHIMURIUM, Strain/Indicator: TA97, Metabolic Activation: RAT, LIVER, S-9, AROCLOR 1254 (10%), Method: PREINCUBATION): inactive; negative | mutagenic call [5]: inactive; negative | mutagenic call [2]: inactive; negative | mutagenic call [6]: inactive; negative | mutagenic call [3]: inactive; negative | mutagenic call [7]: inactive; negative | mutagenic call [8]: inactive; negative | mutagenic call [4]: inactive; negative | mutagenic call [9]: inactive; negative | mutagenic call [10]: inactive; negative

Cn1cnc(N=O)c1-c1ccccc1
mutagenic call [12]: active; positive

COc1ccc(/C=C/c2cc(OC)cc(=O)o2)cc1
mutagenic call (Test System: Mouse lymphoma cells, Strain/Indicator: L5178Y ( tk+/tk-), Metabolic Activation: Human, Liver, S-9, Method: Suspension/plate): inactive; negative
